The text below walks through data of patent publication US9066990B2, “Preparation for restenosis prevention” (priority 2001, dated 2015).

Structures are written as SMILES.

This series can be described thus: Solubility in the contrast agent or physiological NaCl solution.

For the compound `CC(=O)O[C@H]1C(=O)[C@@]2(C)[C@H]([C@H](OC(=O)c3ccccc3)[C@]3(O)C[C@H](OC(=O)[C@H](O)[C@@H](NC(=O)c4ccccc4)c4ccccc4)C(C)=C1C3(C)C)[C@]1(OC(C)=O)CO[C@@H]1C[C@@H]2O` [paclitaxel, 4,10-β-diacetoxy-13-α-((2R,3S)-3-ben-zamido-2-hydroxy-3-phenylpropionyloxy)-2α-benzoyloxy-5-β, 20-epoxy-1,7-β-dihydroxy-11-taxene-9-one], the “appearance of preparation after mixing” value (4.2 mg paclitaxel in 0.5 ml of ethanol added at room temperature to 50 ml of 0.9% NaCl solution) is on record as “becomes turbid immediately after mixing”. Moreover, the “particles under a microscope” value (4.2 mg paclitaxel in 50 ml of 0.9% NaCl solution) is “Large aggregations of fine particles” and the “particles under a microscope” value (7.6 mg paclitaxel in 50 ml Ultravist-370) is “No particles can be identified”. For the same compound, the “appearance of solution after mixing” value (7.6 mg paclitaxel in 0.5 mg of ethanol added at room temperature to 50 ml Ultravist-370) was “clear solution without any turbidity”. The “stability of the solution” value (7.6 mg paclitaxel in 50 ml Ultravist-370, room temperature) is listed as “remains stable for several days”.
